Test system: C. elegans
Experiment: Consumption of GFP-expressing bacteria by a culture of C. elegans (fluorescent plate reader)
Type: in vivo, Caenorhabditis elegans
Protocol: Two cultures of C. elegans and GFP-expressing bacteria were placed in microtiter wells. In one well, a lethal concentration of 10 nanomolar ivermectin was placed. The GFP fluorescence in the wells was determined by a fluorescent plate reader instrument at the initial time, and after two days of culture.
As the C. elegans grow and reproduce, the E. coli lawn is diminished until no bacteria remain. Therefore, the reduction of the bacterial lawn is a measurement of an actively feeding population of C. elegans. The rate of decrease of the lawn is proportional to the number of feeding animals present. […] The consumption of bacteria can be used as an indirect indicator of the distribution of animals. Substances can be spotted onto a substrate in an array, and a uniform lawn of bacteria placed on the substrate, overlaying the array. A test population of C. elegans can be introduced and incubated for a suitable time period to allow consumption of the lawn. If the animals are attracted to a substance, then they will move to that region of the substrate and the bacterial lawn will be diminished at that spot in comparison to the surrounding lawn. Conversely, if a substance repels the animals, then the bacterial lawn at that spot will not be consumed. Thus, bacterial consumption can be used to assay the growth and location of a population of nematodes. If a GFP-expressing bacterial strain is used (Chalfie, et al., supra) as was done in the experiment of Example 3, the variations in bacterial density can be easily detected, for example, by photographing fluorescence intensity.
In this experiment, GFP-expressing bacteria are placed in two microtiter wells along with a population of C. elegans. Because the bacteria express GFP, the amount of bacteria can easily be assayed using a fluorescent plate reader (Cytoflour, Perspective Biosystems). […] Initially, both wells show equivalent levels of bacteria. […] FIG. 3 depicts this experiment. Thus, bacterial consumption can be used to assay the growth and feeding of a population of nematodes. If a GFP-expressing bacterial strain is used (Chalfie, et al., supra) as was done in the experiment shown in FIG. 3, the variations in bacterial density can be easily visualized by photographing fluorescence intensity.

## ivermectin
10 nanomolar ivermectin, after two days of culture
  GFP fluorescence of bacteria in the well (Relative Intensity): GFP fluorescence increases
In vivo
  Effect on C. elegans: kills C. elegans
ivermectin-containing well, after 4 days of culture
  Amount of GFP-expressing bacteria in the well: shows bacterial growth
Microtiter well culture with GFP-expressing bacteria
  Lethal concentration for C. elegans: 10 nM
